Assay [1] has as its system Staphylococcus aureus. Nature of the assay: Antibacterial activity against Staphylococcus aureus MTCC-96 assessed as reduction in bacterial growth incubated for 14 to 16 hrs by microbroth dilution method. The format is functional. As to conditions: time 14-16 hrs.
For assay [2], the system named is Staphylococcus aureus. Description: Antibacterial activity against gentamicin-and methicillin-resistant Staphylococcus aureus ATCC 33592 assessed as reduction in bacterial growth incubated for 14 to 16 hrs by microbroth dilution method. It counts as functional. As to conditions: time 14-16 hrs.
In a further assay the test system is Escherichia coli. Description: Antibacterial activity against Escherichia coli MTCC 1687 assessed as reduction in bacterial growth incubated for 14 to 16 hrs by microbroth dilution method. The format is functional. As to conditions: time 14-16 hrs. In general terms: Broth dilution looks for growth in wells or tubes with falling amounts of substance.
In assay [3] the test system is Staphylococcus aureus. Nature of the assay: Disruption of membrane integrity in Staphylococcus aureus MTCC-96 assessed as increase in fluorescence intensity by PI staining based fluorescence analysis. The format is functional, organism-based.
Assay [4] has as its system Staphylococcus aureus. Description: In vivo antibacterial activity against Staphylococcus aureus MTCC-96 infected in Balb/c mouse assessed as bacterial load by measuring CFU in liver at 523.455 microM/Kg, iv for 7 days by CFU assay (Rvb= 719 CFU). It counts as functional, organism-based. As to conditions: time 7.0 day.
For assay [5], the system named is Staphylococcus aureus. Nature of the assay: In vivo antibacterial activity against Staphylococcus aureus MTCC-96 infected in Balb/c mouse assessed as less dilated portal vein in liver at 523.455 microM/Kg, iv for 7 days by hematoxylin and eosin staining based microscopic analysis. The format is functional, organism-based. The note with it: time 7.0 day.
Assay [6] has as its system Staphylococcus aureus. Nature of the assay: In vivo antibacterial activity against Staphylococcus aureus MTCC-96 infected in Balb/c mouse assessed as less dilated hepatic artery at 523.455 microM/Kg, iv for 7 days by hematoxylin and eosin staining based microscopic analysis. It counts as functional, organism-based. The note with it: time 7.0 day.
Assay [7] concerns Staphylococcus aureus. Nature of the assay: In vivo antibacterial activity against Staphylococcus aureus MTCC-96 infected in Balb/c mouse assessed as liver central vein with minimum infiltration at 523.455 microM/Kg, iv for 7 days by hematoxylin and eosin staining based microscopic analysis. The format is functional, organism-based. As to conditions: time 7.0 day.
Assay [8] relates to Staphylococcus aureus. Nature of the assay: In vivo antibacterial activity against Staphylococcus aureus MTCC-96 infected in Balb/c mouse assessed as hepatocyte distribution at 523.455 microM/Kg, iv for 7 days by hematoxylin and eosin staining based microscopic analysis. The format is functional, organism-based. As to conditions: time 7.0 day.
Assay [9] has as its system Staphylococcus aureus. Nature of the assay: Antibacterial activity against gentamicin-and methicillin-resistant Staphylococcus aureus ATCC 33592 assessed as reduction in bacterial growth incubated for 14 to 16 hrs in presence of 200 uM ZnCl2 by microbroth dilution method. It counts as functional. The note with it: time 14-16 hrs.
Assay [10] concerns Staphylococcus aureus. Nature of the assay: Antibacterial activity against gentamicin-and methicillin-resistant Staphylococcus aureus ATCC 33592 assessed as reduction in bacterial growth incubated for 14 to 16 hrs in presence of 1 uM 1-(2-(1H-benzo[d]imidazol-1-yl)quinolin-8-yl)-3-(3,5-bis(trifluoromethyl)phenyl)thiourea by microbroth dilution method. It counts as functional. As to conditions: time 14-16 hrs.

In assay [11] the test system is Staphylococcus aureus. Nature of the assay: Antibacterial activity against gentamicin-and methicillin-resistant Staphylococcus aureus ATCC 33592 assessed as reduction in bacterial growth incubated for 14 to 16 hrs in presence of 1 uM 1-(2-(1H-benzo[d]imidazol-1-yl)quinolin-8-yl)-3-(3,5-bis(trifluoromethyl)phenyl)thiourea and 100 uM ZnCl2 by microbroth dilution method. The note with it: time 14-16 hrs. The format is functional.

Assay [12] relates to Staphylococcus aureus. Description: Antibacterial activity against gentamicin-and methicillin-resistant Staphylococcus aureus ATCC 33592 assessed as reduction in bacterial growth incubated for 14 to 16 hrs in presence of 1 uM 1-(2-(1H-benzo[d]imidazol-1-yl)quinolin-8-yl)-3-(3,5-bis(trifluoromethyl)phenyl)thiourea and 200 uM ZnCl2 by microbroth dilution method. The format is functional. As to conditions: time 14-16 hrs.

Assay [13] deals with Staphylococcus aureus. Description: Potency index, ratio of compound MIC to compound MIC in presence of 1 uM 1-(2-(1H-benzo[d]imidazol-1-yl)quinolin-8-yl)-3-(3,5-bis(trifluoromethyl)phenyl)thiourea and 200 uM ZnCl2 for antibacterial activity against gentamicin-and methicillin-resistant Staphylococcus aureus ATCC 33592. It counts as functional.
The subject of the next assay is Cell membrane. Description: Induction of cell membrane depolarization in Staphylococcus aureus MTCC-96 assessed as increase in fluorescence intensity at 30 uM by DiSC3-5 dye based fluorescence method. The format is subcellular. The note with it: filed as opener.
The test system of assay [14] is Staphylococcus aureus. Description: Antibacterial activity against gentamicin-and methicillin-resistant Staphylococcus aureus ATCC 33592 assessed as reduction in bacterial growth incubated for 14 to 16 hrs in presence of 100 uM ZnCl2 by microbroth dilution method. The format is functional. The note with it: time 14-16 hrs.
The test system of assay [15] is Staphylococcus aureus. Nature of the assay: Antibacterial activity against gentamicin-and methicillin-resistant Staphylococcus aureus ATCC 33592 assessed as reduction in bacterial growth incubated for 14 to 16 hrs in presence of 2 uM 1-(2-(1H-benzo[d]imidazol-1-yl)quinolin-8-yl)-3-(3,5-bis(trifluoromethyl)phenyl)thiourea and 50 uM ZnCl2 by microbroth dilution method. It counts as functional. The note with it: time 14-16 hrs.

The subject of assay [16] is Staphylococcus aureus. Nature of the assay: Antibacterial activity against gentamicin-and methicillin-resistant Staphylococcus aureus ATCC 33592 assessed as reduction in bacterial growth incubated for 14 to 16 hrs in presence of 1 uM 1-(2-(1H-benzo[d]imidazol-1-yl)quinolin-8-yl)-3-(3,5-bis(trifluoromethyl)phenyl)thiourea and 50 uM ZnCl2 by microbroth dilution method. It counts as functional. As to conditions: time 14-16 hrs.

A word on the MIC: it is the least concentration at which growth counts as inhibited.

In brackets after ≈: the same amount, converted by molar mass. Activity calls are given as the source filed them. The calls are words filed in the database; no cut-off is given here. Non-standard residues stand in square brackets, D forms with d. Residues, ends and D or L forms follow the SMILES beside them. ξ: configuration not given here. Orn = NCCC[C@H](N)C(=O)O; ξP = O=C(O)C1CCCN1

For `FC(F)(F)c1cc(NC(=S)Nc2cccc3ccc(Nc4nc5ccccc5[nH]4)nc23)cc(C(F)(F)F)c1`, the minimal inhibitory concentration (MIC) in the assay on Staphylococcus aureus [1], in the assay on Staphylococcus aureus [2] and with Escherichia coli was above 50 µM each time.

For `O=C(O)c1cn(C2CC2)c2cc(N3CCNCC3)c(F)cc2c1=O` [CIPROFLOXACIN], the MIC was 0.45 µM (≈ 0.149 µg/mL) in the assay on Staphylococcus aureus [1], 1.5 µM (≈ 0.497 µg/mL) in the assay on Staphylococcus aureus [2] and 0.51 µM (≈ 0.169 µg/mL) with Escherichia coli. Also, the result with Staphylococcus aureus [3] was inactive.

As to GENTAMICIN, in the assay with Staphylococcus aureus [4], the Activity worked out at 62 CFU. Further, the outcome with Staphylococcus aureus [5], with Staphylococcus aureus [6], in the assay on Staphylococcus aureus [7] and in the assay with Staphylococcus aureus [8] was Active.

Turning to `FC(F)(F)c1cc(NC(=S)Nc2cccc3ccc(-n4cccc4)nc23)cc(C(F)(F)F)c1`, the minimal inhibitory concentration (MIC) with Staphylococcus aureus [1], in the assay on Staphylococcus aureus [2] and in the assay with Escherichia coli was above 50 µM in each case.

Take `[O-][n+]1ccccc1S` [PYRITHIONE]: the MIC in the assay on Staphylococcus aureus [1] is 9.8 µM (≈ 1.25 µg/mL).

Take `CC(C)(O/N=C(\C(=O)N[C@@H]1C(=O)N2C(C(=O)[O-])=C(C[n+]3ccccc3)CS[C@H]12)c1csc(N)n1)C(=O)O` [CEFTAZIDIME]: the MIC in the assay with Staphylococcus aureus [2] was 229 µM (≈ 125 µg/mL); in the assay on Staphylococcus aureus [9], 229 µM; in the assay on Staphylococcus aureus [10] it was 229 µM; with Staphylococcus aureus [11] it was 5.7 µM; with Staphylococcus aureus [12] it was 0.15 µM. Moreover, the Ratio in the assay on Staphylococcus aureus [13] is recorded as 1524.

As for `CC(C)[C@@H]1NC(=O)[C@H](C)OC(=O)[C@@H](C(C)C)NC(=O)[C@@H](C(C)C)OC(=O)[C@H](C(C)C)NC(=O)[C@H](C)OC(=O)[C@@H](C(C)C)NC(=O)[C@@H](C(C)C)OC(=O)[C@H](C(C)C)NC(=O)[C@H](C)OC(=O)[C@@H](C(C)C)NC(=O)[C@@H](C(C)C)OC1=O`, the result with Cell membrane was Active.

With `CC(C)C[C@@H]1NC(=O)[C@H](CCCN)NC(=O)[C@H](C(C)C)NC(=O)[C@@H]2CCCN2C(=O)[C@@H](Cc2ccccc2)NC(=O)[C@H](CC(C)C)NC(=O)[C@H](CCCN)NC(=O)[C@H](C(C)C)NC(=O)C2CCCN2C(=O)[C@@H](Cc2ccccc2)NC1=O` (stereo partly drawn) (cyclo(L[dF]PV[Orn]L[dF][ξP]V[Orn])), the values for the MIC in the assay with Staphylococcus aureus [1], in the assay on Staphylococcus aureus [2] and in the assay with Escherichia coli were 3.12 µM (≈ 3.56 µg/mL), 6.5 µM (≈ 7.42 µg/mL) and 4.51 µM (≈ 5.15 µg/mL), respectively.

With `CC1(C)S[C@@H]2[C@H](NC(=O)[C@H](N)c3ccccc3)C(=O)N2[C@H]1C(=O)O` [AMPICILLIN], the MIC in the assay on Staphylococcus aureus [2] was 134 µM (≈ 46.8 µg/mL); with Staphylococcus aureus [14], 134 µM; in the assay with Staphylococcus aureus [9] it was 134 µM; in the assay with Staphylococcus aureus [10], 2.1 µM; in the assay on Staphylococcus aureus [11] it was 0.03 µM; in the assay with Staphylococcus aureus [12], 0.03 µM. Further, the minimal inhibitory concentration (MIC) in the assay on Staphylococcus aureus [15] amounted to 0.03 µM; with Staphylococcus aureus [16], 2 µM. Besides, the Ratio in the assay on Staphylococcus aureus [13] was determined as 4466.

As for `FC(F)(F)c1cc(NC(=S)Nc2cccc3ccc(-n4ccc5ccccc54)nc23)cc(C(F)(F)F)c1`, the minimum inhibitory concentration (MIC) in the assay with Staphylococcus aureus [1] is 6.25 µM (≈ 3.32 µg/mL); in the assay with Staphylococcus aureus [2] it was 6.25 µM (≈ 3.32 µg/mL); with Escherichia coli it was above 50 µM.

Take `S=C(Nc1ccccc1)Nc1cccc2cccnc12`: the MIC in the assay on Staphylococcus aureus [1] was above 25 µM; with Staphylococcus aureus [2], above 50 µM; with Escherichia coli, above 50 µM.

On to `CN(C)[C@@H]1C(O)=C(C(N)=O)C(=O)[C@@]2(O)C(O)=C3C(=O)c4c(O)cccc4[C@@](C)(O)[C@H]3C[C@@H]12` [TETRACYCLINE], for which the MIC in the assay with Staphylococcus aureus [2] was determined as 168 µM (≈ 74.7 µg/mL); with Staphylococcus aureus [9] it was 168 µM; with Staphylococcus aureus [10], 168 µM; with Staphylococcus aureus [11], 0.87 µM; in the assay with Staphylococcus aureus [12], 0.18 µM. Moreover, the Ratio in the assay with Staphylococcus aureus [13] was determined as 933.

For the compound `COc1ccc(NC(=S)Nc2cccc3cccnc23)cc1`, the values for the MIC in the assay on Staphylococcus aureus [1], in the assay with Staphylococcus aureus [2] and in the assay with Escherichia coli were above 25 µM, above 50 µM and above 50 µM, respectively.

With `NC[C@H]1O[C@H](O[C@H]2[C@H](O)[C@@H](O[C@H]3O[C@H](CO)[C@@H](O)[C@H](N)[C@H]3O)[C@H](N)C[C@@H]2N)[C@H](O)[C@@H](O)[C@@H]1O` [KANAMYCIN], the MIC in the assay on Staphylococcus aureus [2] worked out at 155 µM (≈ 75.1 µg/mL); in the assay on Staphylococcus aureus [9] it was 155 µM; in the assay on Staphylococcus aureus [10], 155 µM; with Staphylococcus aureus [11], 6.44 µM; in the assay on Staphylococcus aureus [12] it was 0.31 µM. Besides, in the assay on Staphylococcus aureus [13], the Ratio amounted to 499.

As for `FC(F)(F)c1cc(NC(=S)Nc2cccc3ccc(-n4ccnc4)nc23)cc(C(F)(F)F)c1`, the results for the MIC with Staphylococcus aureus [1], in the assay on Staphylococcus aureus [2] and with Escherichia coli were 12.5 µM (≈ 6.02 µg/mL), 12.5 µM (≈ 6.02 µg/mL) and above 50 µM, respectively.

Take `FC(F)(F)c1ccc(NC(=S)Nc2cccc3cccnc23)cc1`: the MIC in the assay with Staphylococcus aureus [1] was 6.25 µM (≈ 2.17 µg/mL); in the assay on Staphylococcus aureus [2] it was 6.25 µM (≈ 2.17 µg/mL); in the assay with Escherichia coli, above 50 µM.

Take `O=[N+]([O-])c1ccc(NC(=S)Nc2cccc3cccnc23)cc1`: the MIC in the assay with Staphylococcus aureus [1] was above 25 µM; with Staphylococcus aureus [2], above 50 µM; in the assay on Escherichia coli, above 50 µM.

Turning to `O=C(Nc1cc(C(F)(F)F)cc(C(F)(F)F)c1)Nc1cccc2cccnc12`, the minimum inhibitory concentration (MIC) in the assay on Staphylococcus aureus [1], with Staphylococcus aureus [2] and with Escherichia coli was above 50 µM throughout.

In the case of `[Cl-].[Cl-].[Zn+2]` [ZINC CHLORIDE], the figures for the MIC in the assay on Staphylococcus aureus [1], in the assay with Staphylococcus aureus [2] and in the assay on Escherichia coli were 1560 µM, 1560 µM and 2000 µM, respectively.

As for `CC1(C)S[C@@H]2[C@H](NC(=O)[C@H](N)c3ccc(O)cc3)C(=O)N2[C@H]1C(=O)O` [AMOXICILLIN], the MIC turned out to be 17 µM (≈ 6.21 µg/mL) in the assay with Staphylococcus aureus [2]; 17 µM in the assay on Staphylococcus aureus [9]; 17 µM in the assay on Staphylococcus aureus [10]; 4.09 µM in the assay on Staphylococcus aureus [11]; 0.05 µM in the assay on Staphylococcus aureus [12]. For the same compound, the Ratio with Staphylococcus aureus [13] is 341.

Regarding CUPRIC CHLORIDE, the minimal inhibitory concentration (MIC) with Staphylococcus aureus [1] stood at 1870 µM.

Values taken from ChEMBL document CHEMBL5360614, “Quinoline Thiourea-Based Zinc Ionophores with Antibacterial Activity” (J Med Chem, 2023).
